Source: patent publication US20130177904A1, “ARNT ISOFORM 3 AS A PREDICTOR OF AMINOFLAVONE RESPONSIVENESS IN CANCER CELLS” (UNIVERSITY OF MARYLAND, BALTIMORE, priority 2010, published 2013)

Key:
[1] = test system: caspases 3/7 in MDA-MB-231; assay: Caspase Glo-3/7 Assay; format: cell-based, Human; details: MDA-MB-231, relative to vehicle treated cells, FIG. 2C
Experimental: (§1) The Caspase Glo-3/7 Assay (Promega) was used to measure the combined activities of caspases-3 and -7. In brief, cells were seeded in a white-walled 96-well plate (Nunc) at a density of 2,000 cells/well and allowed to attach overnight. AF was added the following day in final concentrations of 0.1 nM to 100 μM in replicas of 8. Caspase activity was measured 5 days later by adding the Caspase Glo-3/7 reagent to the plate and incubating for another 2 hours. Caspase cleavage results in the release a substrate for luciferase that was measured using a LumiCount luminometer (Packard). Caspase activity levels were normalized to the amount of viable cells, determined by the CellTiter-Glo Luminescent Cell Viability Assay (Promega) performed in parallel to the caspase assay. Data analysis to obtain the mean and standard error as well as graphing employed Excel® (Microsoft Corporation).

[2] = test system: caspases 3/7 in MDA-MBA-468; assay: Caspase Glo-3/7 Assay; format: cell-based, Human; details: MDA-MBA-468, relative to vehicle treated cells, FIG. 2C
Experimental: as §1

[3] = test system: caspases 3/7 in MCF7; assay: Caspase Glo-3/7 Assay; format: cell-based, Human; details: MCF7, relative to vehicle treated cells, FIG. 2C
Experimental: as §1

[4] = test system: caspases 3/7 in T47D; assay: Caspase Glo-3/7 Assay; format: cell-based, Human; details: relative to vehicle treated cells, FIG. 2C
Experimental: as §1

[5] = test system: A496; details: A496 renal cell line, NIH dose response data; cited from earlier work
[6] = test system: SW620; details: SW620 colon cell line, NIH dose response data; cited from earlier work
[7] = test system: TK10; details: TK10 renal cell line, NIH dose response data; cited from earlier work
[8] = test system: T47D; assay: Cell Death Detection ELISA PLUS apoptosis assay; format: cell-based, Human
Experimental: (§2) To determine the induction of apoptosis, the Cell Death Detection ELISA^PLUS Assay (Roche Cat. No. 11774425001), which determines the degree of cytoplasmic mono- and oligonucleosomes, was employed as described by the manufacturer. […] Cells were then concentrated by centrifugation at 200 g for 10 min at room temperature and the supernatant was discarded. Cells were lysed, and cytoplasmic fractions containing fragmented DNA were transferred to streptavidin-coated microtiter plates preincubated with a biotinylated monoclonal anti-histone antibody. The amount of fragmented nucleosomes bound to anti-histone antibody was evaluated by peroxidase-conjugated monoclonal antibody using ABTS (2,2-azino-di[3-ethylbenzthiazoline sulfonate-6-diammonium salt]) as a substrate, and read in a microplate reader at 405 nm. Non-treated cells were employed as controls.

[9] = test system: MDA-MBA-468; assay: Cell Death Detection ELISA PLUS apoptosis assay; format: cell-based, Human; details: MDA-MBA-468, 48 hours post-AF treatment, 100 nM AF per legend FIG. 2A
Experimental: as §2

[10] = test system: MCF7; assay: Cell Death Detection ELISA PLUS apoptosis assay; format: cell-based, Human
Experimental: as §2

[11] = test system: gamma-H2AX in MDA-MBA-468; assay: Western blot analysis for phosphorylated H2AX; format: cell-based, Human; details: MDA-MBA-468, AF for 24 hrs, FIG. 2B
Experimental: (§3) Western blot analysis for phosphorylated H2AX (γ-H2AX) was performed by first growing cells to between 50% and 80% confluence and treating them with concentrations of AF for 24 hrs, according to the concentration at which 50% of the proliferation was inhibited (IC50). Cells were collected and centrifuged at 1,000×g for 15 minutes at 4° C. Histones were released by the method described by Meng et al. (Cancer Res, 65(12):5337-43 (2005)). Briefly, pellets were washed twice in PBS, homogenized in 0.2 mol/L H2SO4, and centrifuged at 13,000×g. The supernatant was removed and 0.25 volume of 100% (w/v) trichloroacetic acid was added to precipitate the histones. Samples were then centrifuged again at 13,000×g for 15 mins at 4° C. The supernatant was removed and the remaining pellet was suspended in 100% ethanol overnight. A final centrifugation step was performed at 13,000×g for 15 mins at 4° C. The solute was then dissolved in nuclease-free water. Protein concentration was determined using the Bio-Rad Protein Assay (Bio-Rad, CA). 30 μg of protein was resolved on 4-20% Tris-glycine precast gels (Invitrogen). Proteins were transferred onto a PVDF membrane (Immobilon-P, Millipore) and then blocked with 5% milk in TBST (0.1% Tween-20 in 1× Tris-buffered saline—pH 7.4) for 1 hr. […]

[12] = test system: gamma-H2AX in MDA-MBA-231; assay: Western blot analysis for phosphorylated H2AX; format: cell-based, Human; details: MDA-MBA-231, AF for 24 hrs, FIG. 2B
Experimental: as §3

[13] = test system: K562; details: K562 leukemia cell line, NIH dose response data; cited from earlier work

Caspases 3 and 7 activity [1]: do not | induction of caspases 3/7 (combined activity) [2]: marked induction | induction of caspases 3/7 (combined activity) [4]: marked induction
Compound: Cc1c(F)c(N)c2c(=O)cc(-c3ccc(N)c(F)c3)oc2c1F [AF, 5-amino-2-(4-amino-3-fluorophenyl)-6,8-difluoro-7-methylchromen-4-one]
induction of caspases 3/7 (combined activity) [3]: not activated | AF sensitivity [5]: AF sensitive | AF sensitivity [6]: AF sensitive | AF sensitivity [7]: AF sensitive | increase (cytoplasmic nucleosomes; printed as increase in inhibition of cell proliferation) ([8]; 1 μM AF, FIG. 2A): > 4.5 fold | induction of apoptosis ([8]; 48 hours post-AF treatment, 100 nM AF per legend FIG. 2A): prominent induction of apoptosis | induction of apoptosis [9]: prominent induction of apoptosis | increase (cytoplasmic nucleosomes; printed as increase in inhibition of cell proliferation) ([10]; 1 μM AF, MCF7, FIG. 2A): > 4.5 fold | induction of apoptosis ([10]; MCF7, 48 hours post-AF treatment, 100 nM AF per legend FIG. 2A): prominent induction of apoptosis | presence of gamma-H2AX (double stranded DNA breaks) [11]: observed | presence of gamma-H2AX (double stranded DNA breaks) [12]: not observed at all | AF sensitivity [13]: AF sensitive
